Target: T1, MpDHFR (Moritella profunda, UniProt Q70YQ6)
T1 construct: gene dyrA; purified recombinant enzyme made in minimal medium; 'light' form with natural abundance isotopes; construct details only in supplement; monomeric
Test: steady-state kinetics
Format: biochemical
Conditions: light (natural abundance) enzyme, pH 7.0

T1 sequence (Q70YQ6 entry or part of it): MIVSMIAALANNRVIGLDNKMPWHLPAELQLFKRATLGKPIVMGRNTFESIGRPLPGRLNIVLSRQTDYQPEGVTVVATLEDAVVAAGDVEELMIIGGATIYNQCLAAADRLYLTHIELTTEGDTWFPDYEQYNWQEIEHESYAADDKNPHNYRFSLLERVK

Which Michaelis constant (co-substrate NADPH) does the source give for Nc1nc2c(c(=O)[nH]1)N=C(CNc1ccc(C(=O)N[C@@H](CCC(=O)O)C(=O)O)cc1)CN2 [DHF] here?
Its Michaelis constant is “The Michaelis constants for NADPH and DHF are essentially the same for all these enzymes”.

How did the Michaelis constant (co-substrate dihydrofolate) turn out when NC(=O)C1=CN([C@@H]2O[C@H](COP(=O)(O)OP(=O)(O)OC[C@H]3O[C@@H](n4cnc5c(N)ncnc54)[C@H](OP(=O)(O)O)[C@@H]3O)[C@@H](O)[C@H]2O)C=CC1 [NADPH] was run?
Its Michaelis constant is “The Michaelis constants for NADPH and DHF are essentially the same for all these enzymes”.
